# Assay results taken from PubChem BioAssay AID1117361 (Southern Research Institute, 2015).
# Target: Protein Tat (Human immunodeficiency virus type 1 group M subtype B (isolate HXB2)) (UniProt P04608)
# Assay: HIV-1 Tat–TAR interaction blockers – biochemical, fluorescence polarization, FAM-labeled TAR RNA, counter-screen for Vif-APOBEC3G degradation inhibitor project, dose response (AID 1117361)
# Conditions: Tat-TAR RNA binding
# Chain of Protein Tat (Human immunodeficiency virus type 1 group M subtype B (isolate HXB2)) (P04608 whole entry, looked up): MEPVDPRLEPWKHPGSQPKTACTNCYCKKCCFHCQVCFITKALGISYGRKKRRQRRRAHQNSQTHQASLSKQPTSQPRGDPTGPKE
row,Compound,IC50
1,O=C(O)c1ccc(-n2cccc2/C=C2/NC(=O)N(c3cccc(Cl)c3)C2=O)cc1,7.85 µM
2,COC(=O)c1ccccc1-c1c2ccc(=N)cc-2oc2cc(N)ccc12,< 0.19 µM
3,CC(=C/C(=O)O)/C=C/c1ccc(Cl)o1,92 µM
4,CNc1c(C(=O)O)ccc2c1C(=O)c1ccccc1C2=O,21.9 µM
5,Cc1cc(/C=N/Nc2ccc([N+](=O)[O-])cn2)c(C)n1-c1ccc(C(=O)O)cc1,5.58 µM
6,O=C(Nc1ccc(Cl)cc1)Nc1ccc(N2CCC(C(F)(F)F)CC2)nc1,32.5 µM
7,O=C(COC(=O)c1cc(-c2ccco2)nc2ccccc12)NCc1ccc2c(c1)OCO2,18.2 µM
8,O=C1CC(SC(=S)C2CCCC2=O)C(=O)N1 (stereo not given),3.21 µM
9,CC[n+]1ccc(C)c2cc(P(=O)(c3ccccc3)c3ccccc3)ccc21,72.9 µM
10,S=c1[nH]nc(-c2cccnc2)n1/N=C/C=C/c1ccco1,5.3 µM
11,CC(=O)N1CCN(c2nc(-c3ccco3)c3c(c2C#N)CC(C)(C)SC3)CC1,58.8 µM
12,CN(Cc1cnc2nc(N)nc(N)c2n1)c1ccc(C(=O)NC(CCC(=O)O)C(=O)O)cc1 (stereo not given),40.1 µM
13,N#Cc1c(-c2ccco2)cc(-c2ccccc2)[nH]c1=O,5 µM
14,CC[C@H](C)/C=C(C)/C=C/C1=CC2=CC(=O)[C@]3(C)OC(=O)[C@@H](C(C)=O)[C@@H]3C2=CO1,14.4 µM
15,O=C(Nc1ccc2nc(-c3ccco3)c(-c3ccco3)nc2c1)NC1CC1,1.83 µM
16,O=c1oc(/C=C/c2ccco2)nc2sc3c(c12)CCC3,11.9 µM
17,CCn1c(C)nc2cc(C(=O)N/N=C/c3ccc(O)c(O)c3O)ccc21,15.3 µM
18,NC(=O)c1cc(N)ccc1N1CCCC1,2.17 µM
19,CCc1cc2cc(C)cc(C)c2nc1SCC(=O)N1CCN(C(=O)c2ccco2)CC1,39.3 µM
20,O=C(COC(=O)c1ccc(NS(=O)(=O)c2cccs2)cc1)NCc1ccco1,16.4 µM
21,CC(=O)Nc1ccc(S(=O)(=O)NCCSCc2ccco2)cc1,65.8 µM
22,O=C(NCCc1c[nH]c2ccccc12)c1ccc(S(=O)(=O)NCc2ccco2)cc1,48.3 µM
23,CC(=O)Nc1ccc(S(=O)(=O)Nc2nc3ccccc3nc2Nc2ccc(N)cc2)cc1,43.3 µM

row,Compound,IC50
1,Cn1cccc1/C=C1/C(=O)NC(=O)N(Cc2ccccc2)C1=O,67 µM
2,O=C1/C(=C/C=C/c2ccco2)SC(=S)N1NS(=O)(=O)c1ccccc1,2.48 µM
3,Oc1ccc(/C=N/NC2=NCCCCC2)c(O)c1,25.1 µM
4,CC(=O)Nc1ccc(C=C(C#N)c2ccc(C)cc2)cc1,24.7 µM
5,O=C(O)C1Nc2c(C(=O)N3CCOCC3)cccc2C2C=CCC12 (stereo not given),8.99 µM
6,Cc1ccc(S(=O)(=O)N2CCC(C(=O)Nc3nnc(-c4ccco4)s3)CC2)cc1,51.1 µM
7,COC(=O)CCC(=O)OC1(C)C(=O)C2=COC(c3ccc(OC)cc3)=CC2=C(Br)C1=O (stereo not given),13 µM
8,O=S(=O)(O)c1cc(O)c2c(O)c(N=Nc3cc(Cl)ccc3O)c(S(=O)(=O)O)cc2c1,15.9 µM
9,NN=C1C(Cl)=C(Cl)C(Cl)=C1Cl,62.9 µM
10,CCOC(=O)C(=O)NCc1ccc(/C=C2/N=C(C)C(C(=O)OCC)=C2O)o1,4.71 µM
11,O=C(O)CSc1c2c(nc3cc(C(=O)Nc4cccc(C(F)(F)F)c4)ccc13)CCC2,56.2 µM
12,O=C(Nc1ccc2nc(-c3ccco3)c(-c3ccco3)nc2c1)N1CCCCCC1,3.56 µM
13,CC1CCCN(Cc2c(O)ccc3c2O/C(=C\c2ccco2)C3=O)C1 (stereo not given),5.6 µM
14,Cc1cccc(N/N=C/c2ccc(O)c(O)c2O)c1,36 µM
15,Nc1ccc(Nc2ccccc2)c(S(=O)(=O)O)c1,31.4 µM
16,COC(=O)C1=C(C)N(Cc2ccccc2)C(=O)/C1=C\c1ccco1,79.7 µM
17,O=C(N/N=C/C=C\c1ccco1)c1cccnc1,3.91 µM
18,C=CCN=c1scc(-c2ccco2)n1/N=C/c1ccc(O)c(O)c1O,35.4 µM
19,Cc1cccc(NC(=O)CNC(=O)c2cccc(-n3cccc3)c2)c1C,63.3 µM
20,COc1cccc(-c2cn3nc4c(nc3n2)CCCC4)c1,100 µM
21,Cc1cc(-c2n[nH]c(=S)n2/N=C/C=C/c2ccco2)n[nH]1,18.6 µM
22,COc1cc(-c2cccs2)cc(=O)c2c(C)oc(C)c12,22.7 µM
